# Assay results taken from article PMC4718952, “A simple nonradioactive method for the determination of the binding affinities of antibodies induced by hapten bioconjugates for drugs of abuse” (Analytical and Bioanalytical Chemistry, 2015).
# Assays:
# [1] = Stability of heroin and its metabolites in dilute mouse sera; conditions: 24 h
# [2] = Stability of heroin and its metabolites in DPBS without sera; assay type: physicochemical
# plasma proteins [3] = conditions: neat plasma/sera; cited from earlier work
# [4] = in humans, Fig. 1a; cited from earlier work
# plasma proteins [5] = test: Binding of D3-tracers to plasma proteins in dilute week 0 (preimmunized) sera by ED; assay type: in vitro ADME, mouse; conditions: ≥1:400 dilution of week 0 (preimmunized) sera
# Experimental: Week 0 and week 9 sera were considered as negative and anti-hapten sera, respectively. Anti-hapten sera solutions were prepared by diluting the sera in DPBS (1:400, 1:800, or 1:600). Dialysis buffer was prepared by diluting the corresponding negative sera in DPBS (1:400, 1:800, or 1:600). Competitive inhibitors with different initial concentrations were prepared in the dialysis buffer. For the test samples, anti-hapten sera/D3-tracer was run against the negative sera/inhibitors at the same sera dilution. […] For negative controls, negative sera/D3-tracer was run against the negative sera at the same sera dilution.
compound,measurement,setting,value
CN1CC[C@]23c4c5ccc(O)c4O[C@H]2[C@@H](O)C=C[C@H]3[C@H]1C5 [morphine],degradation of morphine in dilute sera,"[1]; normal mouse sera, ≥1:100 dilutions, 4 °C",not observed
same,degradation in the absence of sera,"[2]; DPBS pH 7.4, 4 °C",No degradation
CC(=O)Oc1ccc2c3c1O[C@H]1[C@@H](OC(C)=O)C=C[C@H]4[C@@H](C2)N(C)CC[C@@]341 [heroin],plasma binding,plasma proteins [3],~35%
same,t1/2,[4],3 to 4 min
same,amount of intact heroin,[1]; 1:400 sera dilution with iso-OMPA and BNPP,≥ 80%
same,hydrolysis of heroin in dilute sera,"[1]; normal mouse sera, all dilutions (1:25-1:400), 4 °C",extensive hydrolysis
same,partial heroin hydrolysis,"[2]; absence of sera, DPBS pH 7.4, 4 °C",~20%
same,% heroin remained intact,"[2]; after 24 h in DPBS (− Sera), pH 7.4, 4 °C",79.9 ± 2.71%
6-acetylmorphine [6-AM],t1/2,[4],22 to 26 min
same,hydrolysis of 6-AM in dilute sera,"[1]; normal mouse sera, ≥1:200 dilutions, 4 °C",not observed
same,degradation in the absence of sera,"[2]; DPBS pH 7.4, 4 °C",No degradation
[2H]C([2H])([2H])N1CCC23c4c5ccc(O)c4OC2C(OC(C)=O)C=CC3C1C5 (stereo not shown) [D3-6-AM],binding to the plasma proteins,plasma proteins [5],~0%
[2H]C([2H])([2H])N1CCC23c4c5ccc(O)c4OC2C(O)C=CC3C1C5 (stereo not shown) [D3-morphine],binding to the plasma proteins,plasma proteins [5],~0%
